The experiment has as its system BDF1 mice, L1210 leukemia sc, survival T/C. The experiment is described as follows: NCI In Vivo Anticancer Drug Screen. Data for tumor model L1210 Leukemia (subcutaneous) in B6D2F1 (BDF1) mice. Conditions: higher = longer survival. The procedure, abridged: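 Read-out: T/C ratio, i.e. survival or tumor size in treated mice over that in vehicle-treated controls, from mice bearing transplantable tumors.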

The mark [1] stands for this setting: endpoint: median survival time, dose: 23.0 mg/kg/injection, schedule: Q01DX Z (sc), vehicle: methylcellulose (MC).

Molecules are shown by their SMILES. Several values for one entry are separate records, joined by “and”; a condition that tells them apart may be missing. Equal values may be shown once. Inconclusive results and toxic doses are left out.

Regarding `CC[n+]1ccc(Nc2ccc(NC(=O)c3ccc(Nc4cc[n+](CC)c5ccc(N)cc45)cc3)cc2)cc1`, the T/C (endpoint: median survival time, dose: 0.5 mg/kg/injection, schedule: Q01DX009 (sc), vehicle: water) is 100 % of control; the T/C (endpoint: median survival time, dose: 0.5 mg/kg/injection, schedule: Q03HX024 (ip), vehicle: water) was 122 % of control; the T/C (endpoint: median survival time, dose: 1.0 mg/kg/injection, schedule: Q01DX009 (ip), vehicle: water) was 172 % of control; the T/C (endpoint: median survival time, dose: 1.0 mg/kg/injection, schedule: Q01DX009 (sc), vehicle: water) was 105 % of control; the T/C (endpoint: median survival time, dose: 1.0 mg/kg/injection, schedule: Q03HX024 (ip), vehicle: water) is 177 % of control; the T/C (endpoint: median survival time, dose: 1.0 mg/kg/injection, schedule: Q03HX024 (sc), vehicle: water) was 115 % of control. For the same compound, the T/C by setting is: (endpoint: median survival time, dose: 2.0 mg/kg/injection, schedule: Q01DX009 (ip), vehicle: water) 172 % of control; (endpoint: median survival time, dose: 2.0 mg/kg/injection, schedule: Q03HX008 (sc), vehicle: water) 120 % of control; (endpoint: median survival time, dose: 2.0 mg/kg/injection, schedule: Q03HX024 (ip), vehicle: water) 200 % of control; (endpoint: median survival time, dose: 2.0 mg/kg/injection, schedule: Q03HX024 (sc), vehicle: water) 160 % of control; (endpoint: median survival time, dose: 2.0 mg/kg/injection, schedule: Q04DX003 (sc), vehicle: water) 100 % of control; (endpoint: median survival time, dose: 4.0 mg/kg/injection, schedule: Q01DX001 (sc), vehicle: water) 110 % of control. In addition, the T/C by setting is: (endpoint: median survival time, dose: 4.0 mg/kg/injection, schedule: Q01DX009 (ip), vehicle: water) 122 % of control; (endpoint: median survival time, dose: 4.0 mg/kg/injection, schedule: Q01DX009 (sc), vehicle: water) 210 % of control; (endpoint: median survival time, dose: 4.0 mg/kg/injection, schedule: Q03HX024 (sc), vehicle: water) 190 % of control; (endpoint: median survival time, dose: 4.0 mg/kg/injection, schedule: Q04DX003 (sc), vehicle: water) 115 % of control; (endpoint: median survival time, dose: 8.0 mg/kg/injection, schedule: Q01DX001 (sc), vehicle: water) 110 % of control; (endpoint: median survival time, dose: 8.0 mg/kg/injection, schedule: Q01DX009 (ip), vehicle: water) 111 % of control. The T/C runs as follows: (endpoint: median survival time, dose: 8.0 mg/kg/injection, schedule: Q01DX009 (sc), vehicle: water) 170 % of control; (endpoint: median survival time, dose: 8.0 mg/kg/injection, schedule: Q03HX008 (sc), vehicle: water) 185 % of control; (endpoint: median survival time, dose: 8.0 mg/kg/injection, schedule: Q03HX024 (ip), vehicle: water) 111 % of control; (endpoint: median survival time, dose: 16.0 mg/kg/injection, schedule: Q04DX003 (sc), vehicle: water) 165 % of control.
Regarding `O=C(Nc1ccc(C2=NCCCN2)cc1)c1ccc(C(=O)Nc2ccc(C3=NCCCN3)cc2)cc1`, the T/C runs as follows: (endpoint: median survival time, dose: 3.0 mg/kg/injection, schedule: Q01DX Z (sc), vehicle: methylcellulose (MC)) 190 % of control; (endpoint: median survival time, dose: 5.0 mg/kg/injection, schedule: Q01DX Z (sc), vehicle: methylcellulose (MC)) 195 % of control; (endpoint: median survival time, dose: 8.4 mg/kg/injection, schedule: Q01DX Z (sc), vehicle: methylcellulose (MC)) 165 % of control; (endpoint: median survival time, dose: 14.0 mg/kg/injection, schedule: Q01DX Z (sc), vehicle: methylcellulose (MC)) 155 % of control; under setting [1], 150 % of control.
With `CN1c2c(nc(N)[nH]c2=O)NCC1CCNc1ccc(C(=O)NC(CCC(=O)O)C(=O)O)cc1` (stereo not drawn), the T/C (endpoint: median survival time, dose: 6.25 mg/kg/injection, schedule: Q01DX012 (ip), vehicle: other) was 100 % of control; the T/C (endpoint: median survival time, dose: 12.5 mg/kg/injection, schedule: Q01DX012 (ip), vehicle: other) was 111 % of control; the T/C (endpoint: median survival time, dose: 25.0 mg/kg/injection, schedule: Q01DX012 (ip), vehicle: other) was 122 % of control; the T/C (endpoint: median survival time, dose: 50.0 mg/kg/injection, schedule: Q01DX012 (ip), vehicle: other) is 122 % of control.
As to `CCS(=O)(=O)Nc1cccc(Nc2c3cccc(C)c3nc3c(C)cccc23)c1OC`, the T/C is 105 % of control (endpoint: mean survival time, dose: 12.5 mg/kg/injection, schedule: Q01DX009 (sc), vehicle: Klucel (hydroxypropylcellulose) (HPC)); 100 % of control (endpoint: mean survival time, dose: 25.0 mg/kg/injection, schedule: Q01DX009 (sc), vehicle: Klucel (hydroxypropylcellulose) (HPC)); 104 % of control (endpoint: mean survival time, dose: 50.0 mg/kg/injection, schedule: Q01DX009 (sc), vehicle: Klucel (hydroxypropylcellulose) (HPC)); 112 % of control (endpoint: mean survival time, dose: 100.0 mg/kg/injection, schedule: Q01DX009 (sc), vehicle: Klucel (hydroxypropylcellulose) (HPC)).
Consider `CC(C)Sc1nc(N)nc2nc[nH]c12`, for which the T/C is, setting by setting: under setting [1], 100 % of control; (endpoint: median survival time, dose: 39.0 mg/kg/injection, schedule: Q01DX Z (sc), vehicle: methylcellulose (MC)) 100 % of control; (endpoint: median survival time, dose: 65.0 mg/kg/injection, schedule: Q01DX Z (sc), vehicle: methylcellulose (MC)) 111 % of control; (endpoint: median survival time, dose: 108.0 mg/kg/injection, schedule: Q01DX Z (sc), vehicle: methylcellulose (MC)) 111 % of control; (endpoint: median survival time, dose: 180.0 mg/kg/injection, schedule: Q01DX Z (sc), vehicle: methylcellulose (MC)) 111 % of control; (endpoint: median survival time, dose: 300.0 mg/kg/injection, schedule: Q01DX Z (sc), vehicle: methylcellulose (MC)) 105 % of control. The T/C (endpoint: median survival time, dose: 500.0 mg/kg/injection, schedule: Q01DX Z (sc), vehicle: methylcellulose (MC)) was 111 % of control.
As to `CCSc1nc(Cl)cc(Sc2nc(N)nc3nc[nH]c23)n1`, the T/C is, setting by setting: (endpoint: median survival time, dose: 97.5 mg/kg/injection, schedule: Q01DX Z (sc), vehicle: methylcellulose (MC)) 100 % of control; (endpoint: median survival time, dose: 156.0 mg/kg/injection, schedule: Q01DX Z (sc), vehicle: methylcellulose (MC)) 100 % of control; (endpoint: median survival time, dose: 250.0 mg/kg/injection, schedule: Q01DX Z (sc), vehicle: methylcellulose (MC)) 100 % of control; (endpoint: median survival time, dose: 400.0 mg/kg/injection, schedule: Q01DX Z (sc), vehicle: methylcellulose (MC)) 100 % of control; (endpoint: median survival time, dose: 640.0 mg/kg/injection, schedule: Q01DX Z (sc), vehicle: methylcellulose (MC)) 95 % of control.
Take `COc1cccc2c1C(=O)c1c(O)c3c(c(O)c1C2=O)C[C@@](O)(C(C)=O)C[C@@H]3OC1CC(N)C(O)C(C)O1` (stereo partly drawn): the T/C was 88 % of control (endpoint: median survival time, dose: 1.0 mg/kg/injection, schedule: Q04DX003 (ip), vehicle: saline); 90 % of control (endpoint: median survival time, dose: 2.0 mg/kg/injection, schedule: Q04DX003 (ip), vehicle: saline); 95 % of control and 100 % of control (endpoint: median survival time, dose: 3.0 mg/kg/injection, schedule: Q01DX Z (sc), vehicle: saline); 95 % of control (endpoint: median survival time, dose: 3.1 mg/kg/injection, schedule: Q01DX Z (sc), vehicle: saline); 89 % of control (endpoint: median survival time, dose: 4.0 mg/kg/injection, schedule: Q04DX003 (ip), vehicle: saline); 100 % of control and 115 % of control (endpoint: median survival time, dose: 5.0 mg/kg/injection, schedule: Q01DX Z (sc), vehicle: saline). Also, the T/C was 104 % of control (endpoint: median survival time, dose: 5.0 mg/kg/injection, schedule: Q01DX Z (sc), vehicle: water); 100 % of control (endpoint: median survival time, dose: 5.2 mg/kg/injection, schedule: Q01DX Z (sc), vehicle: saline); 105 % of control and 111 % of control (endpoint: median survival time, dose: 6.5 mg/kg/injection, schedule: Q04DX003 (sc), vehicle: water); 150 % of control (endpoint: median survival time, dose: 8.4 mg/kg/injection, schedule: Q01DX Z (sc), vehicle: saline); 109 % of control and 111 % of control (endpoint: median survival time, dose: 10.8 mg/kg/injection, schedule: Q04DX003 (sc), vehicle: water); 120 % of control (endpoint: median survival time, dose: 14.0 mg/kg/injection, schedule: Q01DX Z (sc), vehicle: saline). In addition, the T/C is 123 % of control (endpoint: median survival time, dose: 14.0 mg/kg/injection, schedule: Q01DX Z (sc), vehicle: water); 110 % of control and 120 % of control (endpoint: median survival time, dose: 23.0 mg/kg/injection, schedule: Q01DX Z (sc), vehicle: saline); 109 % of control (endpoint: median survival time, dose: 23.0 mg/kg/injection, schedule: Q01DX Z (sc), vehicle: water); 120 % of control (endpoint: median survival time, dose: 24.0 mg/kg/injection, schedule: Q01DX Z (sc), vehicle: saline); 99 % of control and 100 % of control (endpoint: median survival time, dose: 30.0 mg/kg/injection, schedule: Q04DX003 (sc), vehicle: water); 110 % of control (endpoint: median survival time, dose: 39.0 mg/kg/injection, schedule: Q01DX Z (sc), vehicle: saline). For the same compound, the T/C reads like this: (endpoint: median survival time, dose: 39.0 mg/kg/injection, schedule: Q01DX Z (sc), vehicle: water) 104 % of control; (endpoint: median survival time, dose: 40.0 mg/kg/injection, schedule: Q01DX Z (sc), vehicle: saline) 110 % of control; (endpoint: median survival time, dose: 65.0 mg/kg/injection, schedule: Q01DX Z (sc), vehicle: water) 95 % of control.

The values are drawn from PubChem BioAssay AID250 (DTP/NCI, 2004).
